Earlier results as cited in patent publication EP4379726A1, “THE METHOD FOR PREDICTING THE OCCURRENCE OF THE OFF-TARGET TOXICITY CAUSED BY SIMILARITY BETWEEN A TARGET EPITOPE AND PUTATIVE OFF-TARGET EPITOPES” (Ardigen S.A., priority 2022, dated 2024).

Tested on: AFP 158 -Specific TCR Engineered T Cells
Settings: in vitro X-scan, engineered T cells against AFP 158 (FMNKFIYEI)

ILNKFIPDI
activation of the T-cell: could activate the T-cell
